Measurements from patent US12352767B2, “Method of treating cognitive decline associated with neurological diseases based on a decrease in FLT4 expression or activity” (University of Virginia Patent Foundation, priority 2018, dated 2025).
“Also recorded” adds a separate entry of the source.

Experiments:
[1] = system: Ly6GnegCD45+CD11b+ brain myeloid cells; assay: Single cell RNA-seq of brain myeloid cells (microglia) of WT and 5xFAD mice (Table 6, Table 7); assay type: in vivo; parameters: key to Rel. Expr. 5xFAD Vis. + photo: HS-Q7 / Rel. Expr. 5xFAD Vis. + photo: Axl / Rel. Expr. 5xFAD Vis.: Ctdnep1 / Rel. Expr. 5xFAD Vis. + photo: Ctdnep1 / Rel. Expr. 5xFAD Vis.: Fabp5 / Rel. Expr. 5xFAD Vis. + photo: Fabp5 / Rel. Expr. 5xFAD Vis.: Nampt / Rel. Expr. 5xFAD Vis. + photo: Nampt / Rel. Expr. 5xFAD Vis. + photo: Tfdp1 / Rel. Expr. 5xFAD Vis. + photo: Hspb11 / Rel. Expr. 5xFAD Vis.: Tyrobp / Rel. Expr. 5xFAD Vis. + photo: Tyrobp / Rel. Expr. 5xFAD Vis. + photo: Tpt1 / Rel. Expr. 5xFAD Vis.: Fth1 / Rel. Expr. 5xFAD Vis. + photo: Fth1 / Rel. Expr. 5xFAD Vis. + photo: Eef1a1 / Rel. Expr. 5xFAD Vis.: Lgals3bp / Rel. Expr. 5xFAD Vis. + photo: Lgals3bp / Rel. Expr. 5xFAD Vis.: Ifitm3 / Rel. Expr. 5xFAD Vis. + photo: Ifitm3 / Rel. Expr. 5xFAD Vis.: Atp5h / Rel. Expr. 5xFAD Vis. + photo: Atp5h / Rel. Expr. 5xFAD Vis.: Fau / Rel. Expr. 5xFAD Vis. + photo: Fau / Rel. Expr. 5xFAD Vis.: Ftl1 / Rel. Expr. 5xFAD Vis. + photo: Ftl1 / Rel. Expr. 5xFAD Vis.: H2-K1 / Rel. Expr. 5xFAD Vis. + photo: H2-K1 / Rel. Expr. 5xFAD Vis. + photo: Tmsb4x / Rel. Expr. 5xFAD Vis. + photo: Uba52 / Rel. Expr. WT Vis.: Hexb / Rel. Expr. 5xFAD Vis.: Hexb / Rel. Expr. WT Vis.: Lgmn / Rel. Expr. 5xFAD Vis.: Lgmn / Rel. Expr. 5xFAD Vis. + photo: Rtp4 / Rel. Expr. 5xFAD Vis.: Lpl / Rel. Expr. 5xFAD Vis. + photo: Lpl: A “+” refers to relative upregulation of gene expression for the noted conditions; A “-” refers to relative downregulation of gene expression for the noted conditions
Method: Effects of meningeal ablation on gene expression were studied in 5×FAD mice. Single cell RNA-seq of brain myeloid cells from 4 months old wild type (WT) and 5×FAD mice were injected with Visudyne alone (Vis., functional meningeal lymphatics) or injected with Visudyne and subjected to transcranial photoconversion (Vis.+photo., ablated meningeal lymphatics). Meningeal lymphatic ablation step was performed twice within a span of 3 weeks and brain myeloid cells were isolated 3 weeks after the last step. Data were obtained from sorted live Ly6G^negCD45^+CD11b^+ brain myeloid cells pooled from 3 mice per group (FIGS. 14A-B). Unsupervised clustering of brain myeloid single cells using t-distributed Stochastic Neighbor Embedding (t-SNE) plotted by group (FIG. 14A) or by distinct cell cluster (FIG. 14B). Frequency of cells from each cluster within the total 354, 487 and 308 cells from WT Vis., 5×FAD Vis. and 5×FAD Vis.+photo. groups, respectively (FIG. 14C). Genes involved in the acquisition of the disease-associated microglia phenotype, depicting the homeostatic, TREM2-independent and TREM2-dependent signatures within each cell were depicted in a heatmap (FIG. 14D). Cells are grouped by cluster and genes are grouped by signature (FIG. 14D). Upset plots were generated for all cells (FIG. 14E) or cluster 1 cells (FIG. 14F) showing the overlap in differentially expressed genes for comparisons between 5×FAD Vis. or 5×FAD Vis.+photo. and WT Vis. […] Expression values are averaged across cells within each group. Normalized enrichment score for GSEA pathways were obtained by Fisher's exact test with Benjamini-Hochberg corrections for the 24 differentially expressed genes in cluster 1 is shown in FIG. 14H. Enrichment analysis was performed in R using the clusterProfiler package. Depicted in FIG. 14I is a heatmap showing the mean-centered average log normalized expression of each gene contributing to the core-enrichment of the “Lysosome” GSEA pathway. Expression values are averaged across cells within each group. All scales show mean-centered, log-normalized expression values.

aquaporin 4 (AQP4) = assay: AQP4 / CD31 immunostaining of brain sections; assay type: in vivo, mice
Method: Mouse fresh frozen brain sections were fixed with 4% PFA for 30 min, rinsed in dH2O and submitted to a heat-induced antigen retrieval step with 10 mM citrate buffer for 20 min. […] The steps described next were generally applied for mouse fresh frozen or fixed free-floating brain sections, lymph node sections on slide, meningeal whole-mounts and human fixed tissue. For immunofluorescence staining, tissue was rinsed in PBS and washed with PBS 0.5% Triton-X-100 for 10 min, followed by incubation in PBS 0.5% Triton-X-100 containing 0.5% of normal serum (either goat or chicken) and 0.5% bovine serum albumin (BSA) for 1 hour at RT. This blocking step was followed by incubation with appropriate dilutions of primary antibodies: anti-LYVE-1 eFluor 660 or anti-LYVE-1 Alexa Fluor® 488 (eBioscience, clone ALY7, 1:200), anti-CD31 (Millipore Sigma, MAB1398Z, clone 2H8, 1:200), anti-IBA1 (Abcam, ab5076, 1:300), anti-GFAP (Millipore Sigma, ab5541, 1:300), anti-AQP4 (Millipore Sigma, A5971, 1:200), anti-Ki67 (Abcam, ab15580, 1:100), anti-hAβ1-16 (BioLegend, clone 6E10, 1:200), anti-Aβ1-37/42 (Cell Signaling, clone D54D2, 1:300) and anti-GFP (Abcam, ab6556, 1:300) in PBS 0.5% Triton-X-100 containing 0.5% of normal serum and 0.5% BSA overnight at 4° C. Meningeal whole-mounts or tissue sections were then washed 3 times for 5 min at RT in PBS 0.5% Triton-X-100 followed by incubation with the appropriate chicken, goat or donkey Alexa Fluor® 488, 546, 594, or 647 anti-rat, -goat, -rabbit, -mouse or -Armenian hamster IgG antibodies (Thermo Fisher Scientific, 1:500) for 1 or 2 hours at RT in PBS 0.5% Triton-X-100. After an incubation for 10 min with 1:2000 DAPI in PBS, the tissue was washed 3 times for 5 min with PBS at RT and mounted with Aqua-Mount (Lerner) and glass coverslips. Preparations were stored at 4° C. for no more than 1 week until images were acquired either using a widefield microscope (Leica) or a confocal microscope (FV1200 Laser Scanning Confocal Microscope, Olympus). Quantitative analysis using the acquired images was performed on FIJI software. For the assessment of brain fluorescent tracer influx or efflux or AQP4 coverage, 10 representative brain sections were imaged using the widefield microscope and the mean area fraction was calculated using Microsoft Excel. […] Area of coverage by CD31^+ blood vessels and AQP4^+ astrocyte endfeet in the brain cortex was achieved by calculating the mean value of 10 representative fields (5 images in each cerebral hemisphere) per sample acquired using the confocal microscope.

[2] = system: brain/meningeal vasculature; assay: Photoacoustic imaging of brain/meningeal blood flow and oxygenation; assay type: in vivo; conditions: 5xFAD mice, 1 week after Visudyne/photoconversion
Text: Adult mice were maintained under anesthesia with 1.5% isoflurane and at a constant body temperature with the aid of a heating pad. A surgical incision was made in the scalp and the fascia was removed to expose the skull. One day prior to the imaging, the skull over the region of interest was thinned to the desired thickness (˜100 μm). Mice were then imaged by multi-parametric photoacoustic microscopy, which is capable of simultaneously image oxygen saturation of hemoglobin (sO2) and blood flow speed as described previously^50. Using the oxy-hemoglobin and deoxy-hemoglobin values, recorded using two nanosecond-pulsed lasers (532 and 559 nm), it is possible to compute the final sO2. Correlation analysis of adjacent A-line signals allows the quantification of blood flow speed within individual vessels. By segmenting major vessels within the region of interest, average values of the blood flow speed and sO2 were extracted for quantitative analysis.

[3] = 5xFAD mice, Visudyne + photoconversion, cluster 1 brain myeloid cells
[4] = 5xFAD mice, Visudyne alone, cluster 1 brain myeloid cells
[5] = WT mice, Visudyne alone, cluster 1 brain myeloid cells
[6] = Visudyne-treated vs vehicle-treated mice

Substance: verteporfin [Visudyne]
- Rel. Expr. 5xFAD Vis. + photo: Atp5h [1, 3]: +
- Rel. Expr. 5xFAD Vis. + photo: Axl [1, 3]: +
- Rel. Expr. 5xFAD Vis. + photo: Ctdnep1 [1, 3]: +
- Rel. Expr. 5xFAD Vis. + photo: Eef1a1 [1, 3]: +
- Rel. Expr. 5xFAD Vis. + photo: Fabp5 [1, 3]: +
- Rel. Expr. 5xFAD Vis. + photo: Fau [1, 3]: +
- Rel. Expr. 5xFAD Vis. + photo: Fth1 [1, 3]: +
- Rel. Expr. 5xFAD Vis. + photo: Ftl1 [1, 3]: +
- Rel. Expr. 5xFAD Vis. + photo: H2-K1 [1, 3]: +
- Rel. Expr. 5xFAD Vis. + photo: HS-Q7 [1, 3]: +
- Rel. Expr. 5xFAD Vis. + photo: Hspb11 [1, 3]: +
- Rel. Expr. 5xFAD Vis. + photo: Ifitm3 [1, 3]: +
- Rel. Expr. 5xFAD Vis. + photo: Lgals3bp [1, 3]: +
- Rel. Expr. 5xFAD Vis. + photo: Lpl [1, 3]: +
- Rel. Expr. 5xFAD Vis. + photo: Nampt [1, 3]: +
- Rel. Expr. 5xFAD Vis. + photo: Rtp4 [1, 3]: +
- Rel. Expr. 5xFAD Vis. + photo: Tfdp1 [1, 3]: +
- Rel. Expr. 5xFAD Vis. + photo: Tmsb4x [1, 3]: +
- Rel. Expr. 5xFAD Vis. + photo: Tpt1 [1, 3]: +
- Rel. Expr. 5xFAD Vis. + photo: Tyrobp [1, 3]: +
- Rel. Expr. 5xFAD Vis. + photo: Uba52 [1, 3]: +
- Rel. Expr. 5xFAD Vis.: Atp5h [1, 4]: +
- Rel. Expr. 5xFAD Vis.: Ctdnep1 [1, 4]: +
- Rel. Expr. 5xFAD Vis.: Fabp5 [1, 4]: +
- Rel. Expr. 5xFAD Vis.: Fau [1, 4]: +
- Rel. Expr. 5xFAD Vis.: Fth1 [1, 4]: +
- Rel. Expr. 5xFAD Vis.: Ftl1 [1, 4]: +
- Rel. Expr. 5xFAD Vis.: H2-K1 [1, 4]: +
- Rel. Expr. 5xFAD Vis.: Hexb [1, 4]: +
- Rel. Expr. 5xFAD Vis.: Ifitm3 [1, 4]: +
- Rel. Expr. 5xFAD Vis.: Lgals3bp [1, 4]: +
- Rel. Expr. 5xFAD Vis.: Lgmn [1, 4]: +
- Rel. Expr. 5xFAD Vis.: Lpl [1, 4]: +
- Rel. Expr. 5xFAD Vis.: Nampt [1, 4]: +
- Rel. Expr. 5xFAD Vis.: Tyrobp [1, 4]: +
- expression of genes of the GSEA lysosome pathway (Table 7, FIG. 14I) ([1]; 5xFAD mice, Visudyne with photo ablation, brain myeloid cells): relatively downregulated
- expression of 24 genes (Table 6) in cluster 1 brain myeloid cells, 5xFAD Vis.+photo. vs WT Vis. ([1]; Visudyne + photoconversion twice within 3 weeks): significantly different
- expression of 24 genes (Table 6) in cluster 1 brain myeloid cells, 5xFAD Vis. vs WT Vis. ([1]; Visudyne alone, no photoconversion): not significantly different
- Rel. Expr. WT Vis.: Hexb [1, 5]: +
- Rel. Expr. WT Vis.: Lgmn [1, 5]: +
- area of AQP4+ astrocytic endfeet in brain cortex (aquaporin 4 (AQP4); Visudyne vs vehicle): No changes were observed
- area of CD31+ blood vessels in brain cortex (aquaporin 4 (AQP4); Visudyne vs vehicle): No changes were observed
- ratio between area of AQP4+ and of CD31+ (aquaporin 4 (AQP4); Visudyne vs vehicle): No changes were observed
- overall brain coverage by AQP4 (area fraction) (aquaporin 4 (AQP4); [6]): could not detect changes; also recorded: no differences between groups
- perivascular localization of AQP4+ astrocytic endfeet (aquaporin 4 (AQP4); [6]): could not detect changes
- blood flow in brain/meninges [2]: no differences; also recorded: did not affect
- blood oxygenation in brain/meninges [2]: no differences; also recorded: did not affect
